{
  "source": "patent US20240374609A1",
  "about": "“NITROSAMINE IMPURITY, VARENICLINE PHARMACEUTICAL COMPOSITION CAPABLE OF REDUCING GENERATION OF NITROSAMINE IMPURITIES AND PREPARATION AND USE THEREOF” (VIWIT PHARMACEUTICALCO., LTD., priority 2021, published 2024)",
  "key": {"[1]": {"tested_on": "Salmonella Typhimurium TA1535", "type": "cell-based", "settings": "positive control", "procedure": "(§1) Salmonella Typhimurium TA97a, TA98, TA100, TA102, and TA1535 from MOLT OX, USA, were purchased from Shanghai Bioplus Biotech. Co., Ltd. The test was carried out using Salmonella typhimurium strains that were identified as meeting the requirements.\n(§2) Rat liver S9 from Shanghai Bioplus Biotech. Co., Ltd.\n(§3) The experiments were performed using the plate incorporation method.\n(§4) Dose selection: The experiments were performed using 5 mg, 2.5 mg, 1.25 mg, 0.625 mg, 0.3125 mg, and 0.15625 mg per dish.\n(§5) Test substance preparation: nitrosamine impurity compound P08 was prepared to a solution of 50 mg/ml with dimethyl-sulfoxide, and diluted with dimethyl-sulfoxide to give the solutions of 25 mg/ml, 12.5 mg/ml, 6.25 mg/ml, 3.125 mg/ml, and 1.5625 mg/ml successively.\n(§6) 0.1 ml of frozen bacterial solutions TA97a, TA98, TA100, TA102 and TA1535 were inoculated into the 10 ml nutrient broth mediums respectively, and cultured at 37° C. (100/min) for 10 h with shaking (100 times/min). 2.0 ml of top layer medium containing 0.5 mmol/L histidine −0.5 mmol/L biotin was dispensed into test tubes, sterilized by 0.103 MPa for 20 min, and kept in a water bath at 50° C. Then, 0.1 ml of the test substance solution, 0.5 ml of the S9 mixture (when metabolic activation was required) and 0.1 ml of the bacterial solution were added into each tube successively, mixed sufficiently, and poured into the bottom layer agar plates quickly. Then, the plates were turned to distribute even. After being placed horizontally for condensation and solidification, the plates were inverted and incubated in an incubator at 37° C. for 48 h, and the number of reverse mutation colonies per dish was counted. Three parallel plates of each dose were made, containing the spontaneous reverse mutation group, the solvent control group and the positive control group.\n(§7) The data were expressed as means±standards deviation (x±s), and SPSS 19.0 was used for calculation of data analysis.\n(§8) If the test substance tested by the above test strain is negative both with and without S9, then the test substance is determined to be mutagenic negative."}, "[2]": {"tested_on": "Salmonella Typhimurium TA102", "test": "Ames test, plate incorporation method, TA102", "type": "cell-based", "settings": "positive control", "procedure": "as §1, §2, §3, §4, §5, §6, §7, §8"}, "[3]": {"tested_on": "Salmonella Typhimurium TA97a", "test": "Ames test, plate incorporation method, TA97a", "type": "cell-based", "settings": "positive control, −S9, 50 μg/dish", "procedure": "(§9) Salmonella Typhimurium TA97a, TA98, TA100, TA102, and TA1535 from MOLT OX, USA, were purchased from Shanghai Bioplus Biotech.\nas §2, §3, §4, §6, §7, §8"}, "[4]": {"tested_on": "Salmonella Typhimurium TA98", "test": "Ames test, plate incorporation method, TA98", "type": "cell-based", "settings": "positive control, TA98, −S9, 50 μg/dish", "procedure": "as §9, §2, §3, §4, §6, §7, §8"}, "[5]": {"tested_on": "Salmonella Typhimurium TA100", "test": "Ames test, plate incorporation method, TA100", "type": "cell-based", "settings": "positive control, TA100, −S9, 1 μl/dish", "procedure": "as §9, §2, §3, §4, §6, §7, §8"}, "[6]": {"test": "Content of nitrosamine impurity P08 in varenicline tartrate tablets, initial and at high temperature (HPLC Q-Exactive-MS/MS)", "type": "physicochemical", "procedure": "After ultrasound for 5 min, the pH of the dispersion was measured. The content of the nitrosamine impurity P08 in the varenicline tartrate tablets were measured by HPLC Q-Exactive-MS/MS (Vanquish HPLC Q-Exactive-MS/MS).\nWherein, • “API” (Active Pharmaceutical Ingredient) refers to the API of varenicline tartrate. • “Initial” refers to the immediate measurement after the preparation of the varenicline tartrate tablet. • “Measurement at high-temperature” refers to the measurement after keeping at 60° C. of the prepared varenicline tartrate tablet for a period of time (see “Chinese Pharmacopoeia”). • Symbol * refers to the liquid sample after adjusting the pH value, and the liquid sample is tested. • Symbol # refers to the liquid sample after adjusting the pH value which is subjected to a high temperature test, and then the liquid sample is tested.\nMethodologically validated HPLC Q-Exactive-MS/MS (Vanquish HPLC Q-Exactive-MS/MS) was used for the qualitative and/or quantitative determination of nitrosamine impurity P08 in varenicline tartrate tablets. The measurement results are shown in Example 4.\nSample solution: 10 varenicline tartrate tablets were placed in a 10 ml volumetric flask, added with 3 mL of purified water and 3 mL of acetonitrile, sonicated for 30s, then diluted with acetonitrile to volume and mixed evenly.\nC (ppm)=the concentration (ng/ml) of P08 in the sample solution/the concentration (mg/ml) of varenicline tartrate in the sample solution."}},
  "note": "Read-outs that look alike come from different tables or passages of the source.",
  "data": [
    {"compound": "O=P1(N(CCCl)CCCl)NCCCO1", "note": "(stereo not shown) [Cyclophosphamide, cyclophosphamide, reference compound]", "values": [
      {"measurement": "number of reverse mutation colonies per dish (x ± s)", "setting": "[1]; TA1535, +S9, 200 μg/dish", "value": "171 ± 11"}
    ]},
    {"compound": "O=C1c2cccc(O)c2C(=O)c2c(O)cccc21", "note": "[1,8-dihydroxyanthraquinone, reference compound]", "values": [
      {"measurement": "number of reverse mutation colonies per dish (x ± s)", "setting": "[2]; TA102, +S9, 50 μg/dish", "value": "921 ± 32"}
    ]},
    {"compound": "CN(C)c1ccc(N=NS(=O)(=O)[O-])cc1.[Na+]", "note": "[Dexon, reference compound]", "values": [
      {"measurement": "number of reverse mutation colonies per dish (x ± s)", "setting": "[3]", "value": "1294 ± 64"},
      {"measurement": "number of reverse mutation colonies per dish (x ± s)", "setting": "[4]", "value": "691 ± 43"}
    ]},
    {"compound": "[N-]=[N+]=[N-]", "note": "[Sodium azide, sodium azide, reference compound]", "values": [
      {"measurement": "number of reverse mutation colonies per dish (x ± s)", "setting": "[1]; TA1535, −S9, 1.5 μg/dish", "value": "570 ± 46"}
    ]},
    {"compound": "COS(C)(=O)=O", "note": "[Methyl methanesulfonate, methyl methanesulfonate, reference compound]", "values": [
      {"measurement": "number of reverse mutation colonies per dish (x ± s)", "setting": "[5]", "value": "1596 ± 71"},
      {"measurement": "number of reverse mutation colonies per dish (x ± s)", "setting": "[2]; TA102, −S9, 1 μl/dish", "value": "2418 ± 257"}
    ]},
    {"compound": "varenicline tartrate [API]", "values": [
      {"measurement": "P08 in API", "setting": "[6]; API of varenicline tartrate used for blue coating tablets", "value": 0.511, "unit": "ppm"},
      {"measurement": "P08 in API", "setting": "[6]; API of varenicline tartrate used for core tablets", "value": 0.511, "unit": "ppm"},
      {"measurement": "P08 in API", "setting": "[6]; API of varenicline tartrate used for white coating tablets", "value": 0.511, "unit": "ppm"}
    ]}
  ]
}
